Values quoted from earlier work in patent publication US10202400B2, “Cortistatin analogues and syntheses thereof” (President and Fellows of Harvard College, priority 2008, dated 2019).
Converted amounts (≈) assume the structure as drawn.

Key:
[1] = system: several human and murine cancer cell lines and one normal human dermal fibroblast cell line (KB3-1, Neuro2A, K562, NHDF)
[2] = system: human umbilical vein endothelial cells (HUVECs)
[3] = system: human nasopharynx carcinoma (KB) cells

CN(C)[C@H]1C[C@@]23CC[C@@]4(O2)C(=CC[C@]2(C)[C@@H](c5ccc6ccncc6c5)CC[C@H]24)C=C3[C@@H](O)[C@@H]1O [Cortistatin A, cortistatin A]
GI50 [1]: 6 to 7 µM | tubular formation in HUVECs (HUVECs): inhibits tubular formation | HUVEC cellular migration (HUVEC): inhibits HUVEC cellular migration | GI50 [2]: 0.00018 µM

CN[C@@H](C)[C@H]1CC[C@H]2[C@@H]3CC[C@@H]4C(=CC3=CC[C@]12C)CC[C@H](NC)C4(C)C [buxenine G]
ED50 [3]: 0.4 µg/mL (≈ 1.08 µM)
